Test system: hypertensive subjects
Test: Adverse events (TEAEs, SAEs, AESI, study drug discontinuation, dose modification);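 also: counts of spontaneously reported adverse events in the Safety Analysis Set, subjects grouped by treatment actually received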
Assay type: in vivo, human
Conditions: Part 1
Description: In analyses performed on the Safety Analysis Set, subjects will be analyzed according to their actual treatment received.

CC(=O)N[C@H]1CC[C@H](NC(=O)CN2CCN(c3nncc(-c4ccc(C)cc4)n3)CC2)CC1 [Compound A HBr]
On-treatment TEAE: General disorders and administration site conditions (50 mg QD (N = 28)): 2 (7.1) n (%)
On-treatment TEAE: General disorders and administration site conditions, Mild (50 mg QD (N = 28)): 1 (3.6) n (%)
On-treatment TEAE: Glomerular filtration rate decreased (50 mg QD (N = 28)): 0 n (%)
On-treatment TEAE: Headache (50 mg QD (N = 28)): 1 (3.6) n (%)
On-treatment TEAE: Headache, Mild (50 mg QD (N = 28)): 1 (3.6) n (%)
On-treatment TEAE: Hyperkalaemia (50 mg QD (N = 28)): 3 (10.7) n (%)
On-treatment TEAE: Hyperkalaemia, Mild (50 mg QD (N = 28)): 3 (10.7) n (%)
On-treatment TEAE: Hyperkalaemia, Moderate (50 mg QD (N = 28)): 0 n (%)
On-treatment TEAE: Hyperkalaemia, Severe (50 mg QD (N = 28)): 0 n (%)
On-treatment TEAE: Hypertension (50 mg QD (N = 28)): 2 (7.1) n (%)
On-treatment TEAE: Hypertension, Moderate (50 mg QD (N = 28)): 2 (7.1) n (%)
On-treatment TEAE: Infections and infestations (50 mg QD (N = 28)): 2 (7.1) n (%)
On-treatment TEAE: Infections and infestations, Mild (50 mg QD (N = 28)): 0 n (%)
On-treatment TEAE: Infections and infestations, Moderate (50 mg QD (N = 28)): 2 (7.1) n (%)
On-treatment TEAE: Investigations (50 mg QD (N = 28)): 1 (3.6) n (%)
On-treatment TEAE: Investigations, Mild (50 mg QD (N = 28)): 1 (3.6) n (%)
On-treatment TEAE: Investigations, Moderate (50 mg QD (N = 28)): 0 n (%)
On-treatment TEAE: Metabolism and nutrition disorders (50 mg QD (N = 28)): 5 (17.9) n (%)
On-treatment TEAE: Metabolism and nutrition disorders, Mild (50 mg QD (N = 28)): 5 (17.9) n (%)
On-treatment TEAE: Metabolism and nutrition disorders, Moderate (50 mg QD (N = 28)): 0 n (%)
On-treatment TEAE: Nervous system disorders (50 mg QD (N = 28)): 2 (7.1) n (%)
On-treatment TEAE: Nervous system disorders, Mild (50 mg QD (N = 28)): 1 (3.6) n (%)
On-treatment TEAE: Orthostatic hypotension (50 mg QD (N = 28)): 0 n (%)
On-treatment TEAE: Orthostatic hypotension, Mild (50 mg QD (N = 28)): 0 n (%)
On-treatment TEAE: Psychiatric disorders (50 mg QD (N = 28)): 0 n (%)
On-treatment TEAE: Psychiatric disorders, Moderate (50 mg QD (N = 28)): 0 n (%)
On-treatment TEAE: Urinary tract infection (50 mg QD (N = 28)): 2 (7.1) n (%)
On-treatment TEAE: Urinary tract infection, Mild (50 mg QD (N = 28)): 1 (3.6) n (%)
On-treatment TEAE: Vascular disorders (50 mg QD (N = 28)): 2 (7.1) n (%)
On-treatment TEAE: Vascular disorders, Mild (50 mg QD (N = 28)): 0 n (%)
On-treatment TEAE: Vascular disorders, Moderate (50 mg QD (N = 28)): 2 (7.1) n (%)
On-treatment TEAE: any, Mild (50 mg QD (N = 28)): 4 (14.3) n (%)
On-treatment TEAE: any, Moderate (50 mg QD (N = 28)): 6 (21.4) n (%)
On-treatment TEAE: any, Severe (50 mg QD (N = 28)): 0 n (%)
Subjects with any On-treatment TEAEs leading to withdrawal from study drug (50 mg QD (N = 28)): 0 n (%)
TEAE leading to permanent discontinuation from study drug: Activated partial thromboplastin time prolonged (50 mg QD (N = 28)): 0 n (%)
TEAE leading to permanent discontinuation from study drug: Cardiac disorders (50 mg QD (N = 28)): 0 n (%)
TEAE leading to permanent discontinuation from study drug: Coronary artery disease (50 mg QD (N = 28)): 0 n (%)
TEAE leading to permanent discontinuation from study drug: Dizziness (50 mg QD (N = 28)): 0 n (%)
TEAE leading to permanent discontinuation from study drug: Hyperkalaemia (50 mg QD (N = 28)): 0 n (%)
TEAE leading to permanent discontinuation from study drug: Hypertension (50 mg QD (N = 28)): 0 n (%)
TEAE leading to permanent discontinuation from study drug: Hypotension (50 mg QD (N = 28)): 0 n (%)
TEAE leading to permanent discontinuation from study drug: Investigations (50 mg QD (N = 28)): 0 n (%)
TEAE leading to permanent discontinuation from study drug: Metabolism and nutrition disorders (50 mg QD (N = 28)): 0 n (%)
TEAE leading to permanent discontinuation from study drug: Nervous system disorders (50 mg QD (N = 28)): 0 n (%)
TEAE leading to permanent discontinuation from study drug: Orthostatic hypotension (50 mg QD (N = 28)): 0 n (%)
TEAE leading to permanent discontinuation from study drug: Vascular disorders (50 mg QD (N = 28)): 0 n (%)
On-treatment TEAE: Blood and lymphatic system disorders (100 mg QD (N = 30)): 0 n (%)
On-treatment TEAE: Blood and lymphatic system disorders, Mild (100 mg QD (N = 30)): 0 n (%)
On-treatment TEAE: Blood creatinine increased (100 mg QD (N = 30)): 3 (10.0) n (%)
On-treatment TEAE: Blood creatinine increased, Mild (100 mg QD (N = 30)): 3 (10.0) n (%)
On-treatment TEAE: Cardiac disorders (100 mg QD (N = 30)): 0 n (%)
On-treatment TEAE: Cortisol decreased (100 mg QD (N = 30)): 0 n (%)
On-treatment TEAE: Cortisol decreased, Mild (100 mg QD (N = 30)): 0 n (%)
On-treatment TEAE: Dizziness (100 mg QD (N = 30)): 0 n (%)
On-treatment TEAE: Gastrointestinal disorders (100 mg QD (N = 30)): 2 (6.7) n (%)
On-treatment TEAE: Gastrointestinal disorders, Mild (100 mg QD (N = 30)): 2 (6.7) n (%)
On-treatment TEAE: General disorders and administration site conditions (100 mg QD (N = 30)): 0 n (%)
On-treatment TEAE: General disorders and administration site conditions, Mild (100 mg QD (N = 30)): 0 n (%)
On-treatment TEAE: Glomerular filtration rate decreased (100 mg QD (N = 30)): 5 (16.7) n (%)
On-treatment TEAE: Headache (100 mg QD (N = 30)): 0 n (%)
On-treatment TEAE: Headache, Mild (100 mg QD (N = 30)): 0 n (%)
On-treatment TEAE: Hyperkalaemia (100 mg QD (N = 30)): 8 (26.7) n (%)
On-treatment TEAE: Hyperkalaemia, Mild (100 mg QD (N = 30)): 8 (26.7) n (%)
On-treatment TEAE: Hyperkalaemia, Moderate (100 mg QD (N = 30)): 0 n (%)
On-treatment TEAE: Hyperkalaemia, Severe (100 mg QD (N = 30)): 0 n (%)
On-treatment TEAE: Hypertension (100 mg QD (N = 30)): 0 n (%)
On-treatment TEAE: Hypertension, Moderate (100 mg QD (N = 30)): 0 n (%)
On-treatment TEAE: Infections and infestations (100 mg QD (N = 30)): 2 (6.7) n (%)
On-treatment TEAE: Infections and infestations, Mild (100 mg QD (N = 30)): 0 n (%)
On-treatment TEAE: Infections and infestations, Moderate (100 mg QD (N = 30)): 2 (6.7) n (%)
On-treatment TEAE: Investigations (100 mg QD (N = 30)): 8 (26.7) n (%)
On-treatment TEAE: Investigations, Mild (100 mg QD (N = 30)): 6 (20.0) n (%)
On-treatment TEAE: Investigations, Moderate (100 mg QD (N = 30)): 2 (6.7) n (%)
On-treatment TEAE: Metabolism and nutrition disorders (100 mg QD (N = 30)): 8 (26.7) n (%)
On-treatment TEAE: Metabolism and nutrition disorders, Mild (100 mg QD (N = 30)): 8 (26.7) n (%)
On-treatment TEAE: Metabolism and nutrition disorders, Moderate (100 mg QD (N = 30)): 0 n (%)
On-treatment TEAE: Nervous system disorders (100 mg QD (N = 30)): 0 n (%)
On-treatment TEAE: Nervous system disorders, Mild (100 mg QD (N = 30)): 0 n (%)
On-treatment TEAE: Orthostatic hypotension (100 mg QD (N = 30)): 0 n (%)
On-treatment TEAE: Orthostatic hypotension, Mild (100 mg QD (N = 30)): 0 n (%)
On-treatment TEAE: Psychiatric disorders (100 mg QD (N = 30)): 2 (6.7) n (%)
On-treatment TEAE: Psychiatric disorders, Moderate (100 mg QD (N = 30)): 2 (6.7) n (%)
On-treatment TEAE: Urinary tract infection (100 mg QD (N = 30)): 1 (3.3) n (%)
On-treatment TEAE: Urinary tract infection, Mild (100 mg QD (N = 30)): 0 n (%)
On-treatment TEAE: Vascular disorders (100 mg QD (N = 30)): 1 (3.3) n (%)
On-treatment TEAE: Vascular disorders, Mild (100 mg QD (N = 30)): 0 n (%)
On-treatment TEAE: Vascular disorders, Moderate (100 mg QD (N = 30)): 1 (3.3) n (%)
On-treatment TEAE: any, Mild (100 mg QD (N = 30)): 9 (30.0) n (%)
On-treatment TEAE: any, Moderate (100 mg QD (N = 30)): 7 (23.3) n (%)
On-treatment TEAE: any, Severe (100 mg QD (N = 30)): 0 n (%)
Subjects with any On-treatment TEAEs leading to withdrawal from study drug (100 mg QD (N = 30)): 4 (13.3) n (%)
TEAE leading to permanent discontinuation from study drug: Activated partial thromboplastin time prolonged (100 mg QD (N = 30)): 1 (3.3) n (%)
TEAE leading to permanent discontinuation from study drug: Cardiac disorders (100 mg QD (N = 30)): 0 n (%)
TEAE leading to permanent discontinuation from study drug: Coronary artery disease (100 mg QD (N = 30)): 0 n (%)
TEAE leading to permanent discontinuation from study drug: Dizziness (100 mg QD (N = 30)): 0 n (%)
TEAE leading to permanent discontinuation from study drug: Hyperkalaemia (100 mg QD (N = 30)): 2 (6.7) n (%)
TEAE leading to permanent discontinuation from study drug: Hypertension (100 mg QD (N = 30)): 0 n (%)
TEAE leading to permanent discontinuation from study drug: Hypotension (100 mg QD (N = 30)): 1 (3.3) n (%)
TEAE leading to permanent discontinuation from study drug: Investigations (100 mg QD (N = 30)): 1 (3.3) n (%)
TEAE leading to permanent discontinuation from study drug: Metabolism and nutrition disorders (100 mg QD (N = 30)): 2 (6.7) n (%)
TEAE leading to permanent discontinuation from study drug: Nervous system disorders (100 mg QD (N = 30)): 0 n (%)
